Target: T1, HRAS^G12V-GppNHp (Homo sapiens, UniProt P01112, G12V)
T1 construct: expression of HRAS (1-166) HRAS^G12V or KRAS^G12V cDNA cloned into the pGEX-2T vector; made in house; host or cells: E. coli C41(DE3)
Assay: SPR binding to HRAS G12V-GppNHp
Method: A BIAcore T100 (GE Healthcare) was used to screen the fragment library for RAS binders. A polyclonal goat anti-GST antibody (GE Healthcare) was immobilized on a CM5 sensor chip (GE Healthcare) by the amine coupling method. To immobilize the antibody on CM5 chip, the chip was first activated by injecting 100 µl mixture of 0.2 M EDC (N-ethyl-N-(dimethylaminopropyl) carbodiimide hydrochloride) and 0.05 M NHS (N-hydroxysuccinimide) at 10 µl/min flow rate. Furthermore, 100 µg/ml anti-GST antibody in 10 mM sodium acetate, pH 5.0 was injected at 5 µl/min for 900 s and immobilized until 20,000 ~ 25,000 RU. After immobilization the chip was immediately inactivated by injecting 1 M ethanolamine, pH 8.5 at 10 µl/min for 600 s. The chip was kept running in the HBS buffer (GE Healthcare) comprising 10 mM HEPES, […], 150 mM NaCl. […] Before fragment library screening, the running buffer was replaced by 20 mM Tris, pH 8, 150 mM NaCl, 5 mM MgCl2, 5% DMSO. DMSO solvent correction curves were generated by injecting the running buffers with serial concentrations of DMSO ranging from 4.5 to 6%. For fragment screening, each compound was diluted at 200 µM or 1 mM, 5% DMSO in 20 mM Tris, pH 8, 150 mM NaCl, 5 mM MgCl2 buffer in a polypropylene 96 well plate. The individual compounds were injected at 30 µl for 60 s at 30 µl/min flow rate over flow cells Fc1, Fc2, Fc3 and Fc4. […]

T1 sequence (P01112 1-166 G12V): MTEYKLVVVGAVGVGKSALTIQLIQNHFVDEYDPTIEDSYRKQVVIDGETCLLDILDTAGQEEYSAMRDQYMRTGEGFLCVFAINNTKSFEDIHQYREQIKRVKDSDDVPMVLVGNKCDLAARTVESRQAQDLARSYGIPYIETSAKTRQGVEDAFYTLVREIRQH

## O=C(NCC1COc2ccccc2O1)c1ccco1 (stereo not shown) [Abd-2]
  binding to^G12V-GppNHp (SPR): binds

— article PMC6085350, “Small molecule inhibitors of RAS-effector protein interactions derived using an intracellular antibody fragment” (Nature Communications, 2018)
